These results are taken from US10633383B2, “Compounds for the treatment, alleviation or prevention of disorders associated with Tau aggregates” (AC Immune SA, priority 2018, dated 2020).

Experiment [1] relates to human neuroblastoma cell line overexpressing the full-length form of human Tau carrying the P301L mutation. Kind of experiment: Reduction of intracellular Tau aggregation (AlphaLISA). It counts as cell-based. To be noted: compound at 5 μM, 24 h, aggregated Tau normalized to total Tau, relative to DMSO-treated cells. The procedure: Reduction of Intracellular Tau Aggregation
A human neuroblastoma cell line overexpressing the full-length form of human Tau carrying the P301L mutation was cultured in complete medium [DMEM-F12 4.5 g/L Glutamax (Invitrogen), 15% FBS (Biochrom), 1% Peni/Strep (Invitrogen) supplemented with 2.5 μg/ml of G418 (Sigma-Aldrich) selection antibiotic]. The day before the experiment 5×10^5 cells/well were plated in a 6 well plate in 3 mL of complete medium. The next day, cells were incubated with DMSO or a compound of the present invention at a 5 μM for additional 24 h at 37° C. After incubation, cells were trypsinized, resuspended in 100 μl of homogenization buffer [25 mM Tris-HCl pH 7.4, 150 mM NaCl, 1 mM EDTA, 1 mM EGTA containing phosphatase inhibitors (30 mM NaF, 0.2 mM Na3VO4, 1 nM Okadaic acid, 1 mM PMSF, 5 mM Na4P2O7) and protease inhibitor cocktail (Complete™, Roche)], and then physically lysed with three rapid cycles of freezing and thawing. Samples were then directly tested in the AlphaLISA assay. Phosphorylated, aggregated, and total Tau were quantified by AlphaLisa using the following antibody pairs: • HT7-Acceptor beads+biotin (BT)-Tau13-Donor beads: Total Tau • HT7-Acceptor beads+biotin (BT)-HT7-Donor beads: Aggregated human Tau
The Tau13 (Abcam) was biotinylated using EZ-Link® NHS-PEO Solid Phase biotinylation kit (Thermo Scientific), while the HT7-biotin was from a commercial source (Thermo Scientific).
For each antibody pairs the concentration of acceptor beads and biotinylated antibodies was optimized. All samples were first tested in a dilution series in PBS in order to identify the linear range and optimal dilution for each sample and assay. For the final protocol, the following reagents were added in a 384-well white OptiPlate (PerkinElmer): • 5 μL of test diluted sample • 20 μL of the mixture biotin-mAb acceptor beads at the following final concentrations: • HT7-BT at 1.25 nM in combination with HT7-Acc beads at 10 μg/ml • Tau13-BT at 5 nM in combination with HT7-Acc beads at 2.5 μg/ml
After incubation of this mixture at room temperature for 1 h, 25 μL of Streptavidin Donor beads (Perkin Elmer) at 25 μg/mL were added in the dark. Plates were analyzed after 30 min incubation using the EnSpire Alpha instrument and EnSpire Workstation version 3.00. Data for aggregated Tau were normalized to total Tau and then expressed as percentage of the DMSO-treated cells.

Experiment [2] addresses T1, Tau K18 fragment (amino acids 244 to 372 of human Tau441) aggregates (Homo sapiens, UniProt P10636).
T1 construct: encompassing amino acids 244 to 372 of the longest isoform (2N4R) of human Tau441; host or cells: bacteria
The experiment in a line: Tau K18 disaggregation assay by ThT. It counts as biochemical. To be noted: 2 μM K18 aggregates, 30 minutes at RT, ThT fluorescence. The procedure: Tau K18 Disaggregation Assay by ThT
(§1) Compounds were dissolved in anhydrous dimethyl sulfoxide (DMSO, Sigma-Aldrich) to reach a concentration of 10 mM. K18 aggregates and serial dilutions of compounds were mixed together in PBS (volume 50 μL) to a final concentration of 2 μM of K18 aggregates and from 160 to 0.04 μM of compounds. The mixture was incubated for 30 minutes at room temperature (RT), then 40 μL of this mixture were transferred into a black 384-well plate assay (Perkin-Elmer) and mixed with 10 μL of 100 μM ThT in 250 mM glycine (both from Sigma-Aldrich) in PBS. Fluorescence (relative fluorescence units; RFU) was measured in monoplicate or duplicate on a Tecan reader (excitation: 440 nm; emission: 485 nm). Percentage of K18 disaggregation was then calculated and half maximal effective concentration (EC50) was determined using GraphPad Prism version 5 (GraphPad Software) assuming a one-binding site fitting model.

The target of experiment [3] is T2, recombinant full-length (fl)Tau (human Tau 2N4R) aggregates (Homo sapiens, UniProt P10636).
T2 construct: 35 μM of recombinant full-length (fl)Tau in PBS were aggregated; made in house; host or cells: bacteria
T2 sequence (P10636 1-441 isoform P10636-8): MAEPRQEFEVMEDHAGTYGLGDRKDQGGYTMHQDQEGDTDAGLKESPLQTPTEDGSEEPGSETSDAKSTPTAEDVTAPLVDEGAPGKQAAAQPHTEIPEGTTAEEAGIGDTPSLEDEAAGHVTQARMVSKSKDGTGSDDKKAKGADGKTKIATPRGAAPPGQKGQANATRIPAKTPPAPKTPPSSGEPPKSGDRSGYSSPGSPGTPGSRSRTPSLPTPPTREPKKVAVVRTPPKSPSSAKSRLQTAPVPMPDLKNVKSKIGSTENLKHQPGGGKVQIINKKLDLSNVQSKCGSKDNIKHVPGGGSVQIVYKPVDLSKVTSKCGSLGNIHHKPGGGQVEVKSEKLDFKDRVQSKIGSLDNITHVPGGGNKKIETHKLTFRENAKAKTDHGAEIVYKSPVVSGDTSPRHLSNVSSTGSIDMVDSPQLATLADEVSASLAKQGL
Kind of experiment: Full-length Tau (flTau) disaggregation assay by Thioflavin T (ThT). It counts as biochemical. The note with it: 2 μM flTau aggregates, 30 minutes at RT, ThT fluorescence. The procedure:
Full-Length Tau (flTau) Disaggregation Assay by Thioflavin T (ThT)
as §1, with “The longest isoform of human Tau (2N4R; 441 amino acids) was expressed in bacteria and purified. For the Tau disaggregation assay by ThT, 35 μM of recombinant full-length (fl)Tau in PBS were aggregated for 24 hours at 37° C. in presence of 50 μM of heparin (Sigma-Aldrich) and 10 mM of DTT (Sigma-Aldrich) under shaking at 750 RPM. Compounds were” for “Compounds were”, “10 mM. flTau aggregates and” for “10 mM. K18 aggregates and”, “μM of flTau aggregates and” for “μM of K18 aggregates and”, “Percentage of flTau disaggregation was” for “Percentage of K18 disaggregation was”, “calculated and the half maximal” for “calculated and half maximal”

T1 sequence (P10636 561-689): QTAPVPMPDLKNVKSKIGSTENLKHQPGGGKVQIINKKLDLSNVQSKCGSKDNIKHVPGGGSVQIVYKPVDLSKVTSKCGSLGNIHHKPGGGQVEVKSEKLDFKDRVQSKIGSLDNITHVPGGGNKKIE

For the compound `Fc1ccc2c3c([nH]c2c1)CCN(c1ccn2nc(N4CCOCC4)nc2c1)C3` [Example 70], the inhibition at 5 µM in experiment [1] lay in the range of 25 to 50%. In addition, the EC50 in experiment [2] is below 10 µM.

As for `Fc1ccc2c3c([nH]c2c1)CCN(c1ccc2oc(N4CCOCC4)nc2c1)C3` [Example 45, 5-(7-fluoro-1,3,4,5-tetrahydropyrido[4,3-b]indol-2-yl)-2-morpholino-1,3-benzoxazole], in experiment [1], the inhibition at 5 µM was above 50%. Moreover, the EC50 in experiment [2] and in experiment [3] was below 10 µM in each case.

Turning to `Cn1c2c(c3ccc(F)cc31)CN(c1ccc3nc(N4CCOCC4)sc3c1)CC2` [Example 64], the inhibition at 5 µM in experiment [1] was 10 to 25%. In experiment [3], the EC50 was below 10 µM.

As for `Fc1ccc2[nH]c3c(c2c1)CN(c1ccc2nc(N4CCOCC4)sc2c1)CC3` [Example 6], in experiment [1], the inhibition at 5 µM fell in the range of 25 to 50%. Moreover, in experiment [2], the EC50 is below 10 µM.

Take `COc1ccc2[nH]c3c(c2c1)CN(c1ccc2nc(N4CCOCC4)sc2c1)CC3` [Example 19]: the inhibition at 5 µM in experiment [1] lay in the range of 25 to 50%. In addition, in experiment [3], the EC50 was below 10 µM.

As to `Fc1cccc2[nH]c3c(c12)CN(c1ccc2sc(N4CCOCC4)nc2c1)CC3` [Example 52], the inhibition at 5 µM in experiment [1] lay within 10 to 25%. In experiment [3], the EC50 was below 10 µM.

For the compound `CN(C)c1nc2cc(N3CCc4[nH]c5cc(F)ccc5c4C3)ccc2s1` [Example 69], the inhibition at 5 µM in experiment [1] is above 50%. For the same compound, the EC50 in experiment [3] is below 10 µM.

Take `CN(C)c1nc2ccc(N3CCc4[nH]c5cc(F)ccc5c4C3)cc2o1` [Example 55]: in experiment [1], the inhibition at 5 µM was 10 to 25%. Further, the half-maximal effective concentration (EC50) in experiment [3] was below 10 µM.
